Among the test systems are COLO 205 colon; DU-145 prostate; HCT-15 colon; HOP-92 NSCLC; HS 578T breast; K-562 leukemia; MALME-3M melanoma; MCF7 breast; MDA-N; MOLT-4 leukemia; OVCAR-4 ovarian; RPMI-8226 leukemia; SF-295 CNS; SN12C renal; SNB-19 CNS; SR leukemia; TK-10 renal; OVCAR-3 ovarian; SNB-75 CNS; UO-31 renal.
What all share (experiment): NCI tumour cell line growth inhibition, 48 h

Molecules are shown by their SMILES.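 Assay format: 96-well plates, 48-hour exposure. TGI: concentration producing complete growth inhibition.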 Where a SMILES comes first, the peptide text is derived from it. The star is where a group is joined. Cbz = O=C(OCc1ccccc1)*

For `COC(=O)C1=C(O)c2ccc(Cl)cc2S(=O)(=O)N1C`, the TGI in the test with COLO 205 colon, with DU-145 prostate, with HCT-15 colon, in the test on HOP-92 NSCLC, with HS 578T breast and in the test on K-562 leukemia was more than 100 µM each time. Besides, the TGI with MALME-3M melanoma, in the test on MCF7 breast, in the test on MDA-N, in the test with MOLT-4 leukemia, in the test with OVCAR-4 ovarian and with RPMI-8226 leukemia was more than 100 µM throughout. Also, the TGI in the test with SF-295 CNS, with SN12C renal, with SNB-19 CNS, in the test on SR leukemia and with TK-10 renal was more than 100 µM in each case.

As to `CC1C=CN(N(C)C)C2=C1C(=O)c1cnccc1C2=O` (stereo unspecified), the TGI was determined as 2.45 µM in the test with COLO 205 colon; 1.39 µM in the test with DU-145 prostate; 1.23 µM in the test on HCT-15 colon; 3.87 µM in the test with HOP-92 NSCLC; 3.82 µM in the test on HS 578T breast; 1.49 µM in the test on MALME-3M melanoma. Moreover, the TGI was 0.986 µM in the test on MCF7 breast; 0.278 µM with MDA-N; 4.06 µM in the test with MOLT-4 leukemia; 2.37 µM with OVCAR-3 ovarian; 2.03 µM in the test on OVCAR-4 ovarian; 2.65 µM in the test with RPMI-8226 leukemia. Besides, the TGI was determined as 2.18 µM in the test on SF-295 CNS; 0.558 µM with SN12C renal; 2.31 µM in the test on SNB-19 CNS; 0.868 µM in the test on SNB-75 CNS; 0.196 µM with SR leukemia; 1.44 µM in the test on TK-10 renal. In addition, in the test with UO-31 renal, the TGI turned out to be 0.39 µM.

In the case of `O=C(N(O)c1ccccc1Cl)C(O)(c1ccccc1)c1ccccc1`, the TGI is more than 100 µM with COLO 205 colon; more than 100 µM with DU-145 prostate; more than 100 µM in the test on HCT-15 colon; more than 100 µM in the test on HOP-92 NSCLC; more than 100 µM in the test with HS 578T breast; 71.5 µM in the test with K-562 leukemia. The TGI in the test on MALME-3M melanoma, with MCF7 breast, with MDA-N, in the test with MOLT-4 leukemia, with OVCAR-3 ovarian and in the test with OVCAR-4 ovarian was more than 100 µM throughout. For the same compound, the TGI was 69 µM in the test on RPMI-8226 leukemia; more than 100 µM with SF-295 CNS; more than 100 µM with SN12C renal; more than 100 µM in the test with SNB-19 CNS; 49.9 µM with SR leukemia; more than 100 µM in the test on TK-10 renal. In addition, in the test with UO-31 renal, the TGI is 57.9 µM.

As for `CC(C)C(C/C=C1\CC(CO)(COC(=O)C(C)(C)C)OC1=O)C(C)C` (stereo unspecified), the TGI worked out at 11.4 µM with COLO 205 colon; 19.6 µM in the test with DU-145 prostate; 29.8 µM in the test with HCT-15 colon; 25 µM in the test on HOP-92 NSCLC; 11.8 µM with HS 578T breast; 44.9 µM in the test with K-562 leukemia. Also, the TGI came to 23.5 µM with MALME-3M melanoma; 37.6 µM with MCF7 breast; 17.6 µM in the test on MDA-N; 25 µM with MOLT-4 leukemia; 26.4 µM in the test on OVCAR-3 ovarian; 31.9 µM in the test on OVCAR-4 ovarian. Also, the TGI in the test with SF-295 CNS is 18.1 µM; in the test with SN12C renal it was 19.8 µM; in the test on SNB-19 CNS, 26 µM; in the test with SNB-75 CNS it was 15.2 µM; with SR leukemia, more than 100 µM; in the test with TK-10 renal, 21.1 µM. In the test on UO-31 renal, this compound gave a TGI of 18.3 µM.

For `O=c1oc2c/c(=C\c3ccc([N+](=O)[O-])cc3)c(=O)c3cccc1c3-2`, the TGI with COLO 205 colon, in the test with DU-145 prostate, with HCT-15 colon, with HOP-92 NSCLC, with HS 578T breast and with K-562 leukemia was more than 100 µM throughout. In addition, the TGI in the test with MALME-3M melanoma, in the test with MCF7 breast, in the test with MDA-N, in the test on MOLT-4 leukemia, in the test on OVCAR-3 ovarian and with RPMI-8226 leukemia was more than 100 µM each time. In addition, the TGI in the test with SF-295 CNS is more than 100 µM; in the test with SN12C renal, more than 100 µM; in the test with SNB-19 CNS, more than 100 µM; in the test on SNB-75 CNS it was 88.6 µM; with SR leukemia, more than 100 µM; in the test with TK-10 renal, 72.1 µM. This compound registered a TGI with UO-31 renal of more than 100 µM.

As to `CC(NC(=O)C(NC(=O)OCc1ccccc1)C(C)C)C(=O)NCC(=O)O` (stereo not drawn) (Cbz-Val-Ala-Gly-OH; configuration not given here), the TGI with COLO 205 colon, in the test on DU-145 prostate, with HCT-15 colon, with HOP-92 NSCLC, in the test with HS 578T breast and with K-562 leukemia was more than 100 µM throughout. Further, the TGI in the test with MALME-3M melanoma, in the test on MCF7 breast, in the test with MDA-N, with MOLT-4 leukemia, in the test on OVCAR-3 ovarian and in the test with RPMI-8226 leukemia was more than 100 µM each time. Also, the TGI with SF-295 CNS, in the test on SN12C renal, with SNB-19 CNS, in the test on SR leukemia, in the test on TK-10 renal and in the test on UO-31 renal was more than 100 µM each time.

These data come from PubChem BioAssay (NCI).
